Data taken from patent US11964014B2, “Vaccine adjuvants based on TLR receptor ligands” (priority 2019, dated 2024).

What was measured:
[1] = test system: monovalent (A/Victoria, H3N2) split flu antigen; format: in vivo, Balb/c mice; details: i.m.
[2] = test system: CT26 cells (murine colon cancer cell line); assay: CT26 syngeneic tumor model, tumor growth; format: in vivo; details: CT26 s.c. in female Balb/c mice; 10 μg or 50 μg IV once a week for two weeks, 2% glycerol in sterile water (FIG. 6A, 6B)
Protocol: Young, female Balb/c mice (approximately 8 weeks old) were implanted with 1×10^6 CT26 cells (murine colon cancer cell line, syngeneic in Balb/c mice) subcutaneously in the right flank. When tumors reached an average size of 75 mm^3 (11 days after CT26 cells were implanted), mice were randomized into treatment groups. Beginning on day 12, 10 μg or 50 μg of UM-1007 in an aqueous formulation (2% glycerol in sterile water) was injected IV once a week for two weeks.

[3] = test system: primary human peripheral blood mononuclear cells (PBMCs); assay: Cytokine (IFNα, IL-12p70, TNFα) induction in human PBMCs stimulated with TLR agonists; format: cell-based; details: human PBMC
Protocol: IFNα and IL-12p70 responses were measured in primary human peripheral blood mononuclear cells (PBMCs) after exposure to various concentrations of oxoadenine compounds.
Liposomes were prepared using the thin film method: phospholipids (DOPC and cholesterol at 40 and 10 mg/mL respectively) and agonist(s) (TLR7/8 agonist fixed at 2 mg/mL) were dissolved in chloroform at the desired concentration in a round bottom flask. The solvent was removed under vacuum by rotary evaporation at 45° C., and the resulting dried film was placed in a vacuum chamber overnight to remove any residual solvent. Rehydration buffer was added to the dried film and the suspension was sonicated to resuspend the phospholipids and form the unilamellar vesicles. Sonication continued until the particle size was<200 nm, at which time the formulations were sterile filtered through a 0.22 μm PVDF filter. Concentrations of agonist(s) in the formulations was determined by RP-HPLC using a five-point standard curve. Human whole blood was collected from normal healthy donors at the University of Montana (Missoula, MT) using an Institutional Review Board approved protocol. […] Culture supernatants were analyzed for IL-12p70 and IFNα levels using human IL-12p70 DuoSet (R) ELISA kit (R&D Systems, Minneapolis, MN) and human IFNα VeriKine ELISA kit (Pestka Biomedical Laboratories, Inc., Piscataway, NJ).

CCCCCCCCCCCCCCCC(=O)OC[C@H](COCCOCCOCCOP(=O)(O)OCCN1CCC(Cn2c(O)nc3c(N)nc(O[C@@H](C)CCC)nc32)CC1)OC(=O)CCCCCCCCCCCCCCC [UM-1007]
Anti-influenza IgG titers over antigen-only vaccinated animals ([1]; Balb/c mice, liposomes, 10 μg UM-1007 alone): 17 fold | Dose dependence of anti-influenza IgG titer enhancement ([1]; Balb/c mice, liposomes, 14dp2 (FIG. 3B)): enhanced titers in a dose-dependent manner | Anti-influenza IgG titers over the antigen-alone group ([1]; Balb/c mice, liposomes, co-encapsulated with CRX-601 (TLR7/8:TLR4 ratio 10:1)): > 25 fold | Anti-influenza IgG titers after a single vaccination ([1]; naïve Balb/c mice, liposomes alone or co-encapsulated with CRX-601, 14dp1 (FIG. 3A)): Strong anti-influenza IgG titers | Tumor growth compared to treatment naive controls [2]: slower tumor growth | IFNα induction potency compared with the non-PEGylated oxoadenine Compound B ([3]; 24 h, liposomes, alone or in combination with TLR4 agonist CRX-601 (FIG. 2A)): more potent IFNα inducer | IL-12p70 induction potency relative to Compound B ([3]; combined with TLR4 agonist CRX-601 (FIG. 2B)): 125 fold
